Experimental data from patent publication EP4349409A1, “COMPOUNDS FOR THE MANAGEMENT OF CELL STEMNESS AND INVASION IN CANCER AND RELATED DISEASES” (Instituto Biomar S.A., priority 2022, dated 2024).
pIC50: −log10 of the molar value.

Legend:
[1] = Pharmacokinetics in plasma after intraperitoneal administration; type: in vivo; conditions: female C57BL/6 mice, i.p. 100 mg/kg
Protocol: The Maximum Tolerated Dose (MTD) and Pharmacokinetics (PK) of BMT9 were determined after intraperitoneal administration to female C57BL/6 (~25 g) mice.
C57BL/6 female mice (9-13 weeks in age) were administered intraperitoneally with a single dose of BMT9 at 35, 50, 75, 100 or 200 mg/Kg. Total of 3 animals were used for each independent serial sampling experiment. The compound was dissolved in an appropriate vehicle (Cremophor:EtOH:H20 1:1:8). Body weight, distress and survival were monitored 1, 2, 4 hours and 8 hours post-administration and every day during the whole observation period. The MTD was set on the dose below the first dose that caused severe loss of body weight (>20%) or death of one or more animals of a dose group seven days after treatment. The MTD of BMT9 was therefore set on about […]. The concentrations of BMT9 in plasma was determined at different times per duplicate using a previously validated analytical method. The compound was injected via i.p at 100 mg/kg. Total of 3 animals were used for each independent serial sampling experiment. Blood samples were collected at 5, 15, 30 min, 1, 4, 10, 24, and 48 hours from each animal via cardiac puncture; […] withdrawn at each time point. 25 microliters of blood sample were then used for quantitative bioanalysis by HPLC-MS/MS. The fundamental pharmacokinetic parameters were obtained from the non-compartmental analysis using PK Solutions 2.0.2.

G144 cells [2] = test: 3D spheroid cell-invasion assay in Matrigel, G144; type: cell-based, human; conditions: 24 h
Protocol: A hallmark of glioblastoma cell infiltration through a 3D environment is the extension of long, thin polarized membrane extensions that explore and penetrate the surrounding environment. The 3D spheroid cell-invasion model consists in generating cell spheroids by suspension culture that are subsequently embedded in a 3D matrix. G144 cells were seeded on non-adherent conditions (without laminin coating) at a cell concentration of 40,000 cells/ml. After 8 days, spheres were embedded in a 2:1 mixture of Matrigel and growth media. Matrigel mix was let to polymerize at 37°C for 30 minutes, and then it was covered with growth media. Migration was monitored by phase-contrast microscopy for 24 h and the area of each sphere at the initial and final time points was measured using the ImageJ software, in order to calculate the ratio between both areas (Figure 10D, Y axis).

G144 = test: Scratch (wound healing) assay, G144; type: cell-based, human; conditions: G144, 4.5µM, 24 h
Protocol: The effect of BMT9 in cell migration was evaluated using scratch assays, also known as wound healing assays. Cells were seeded in culture inserts for wound healing assays (Ibidi) at a cell density of 35,000 cells/cm^2; 24 h later the insert was removed to create the wound, and fresh medium was added with the corresponding treatment. Microscopy images were acquired at the time of treatment and 24 h later, using a Leica DMI3000 phase contrast microscope. Analysis was performed using the ImageJ software (Schindelin et al., 2012) and the MRI wound healing tool plugin (Suarez-Arnedo et al., 2020). Cell-free area was measured at the two indicated time points and the wound closure percentage relative to the starting point was calculated for each well individually. This assay was performed in G144 and in G179 cells (Figure 10 B and C, respectively).

[3] = system: normal human fetal neural stem cells-NSC; test: Long term MTT viability, normal neural stem cells; type: cell-based; conditions: CD133-positive NSC, 1.125-4.5 µM
Protocol: Previous studies have reported that the molecular signature of the GNSC G144 cell line corresponds to a 'proneural' subtype of GB with NSC features (Pollard et al., 2009; Danovi et al., 2013). Thus, to test BMT9 specificity we compared cellular viability when treating CD133-positive cells (either GNSCs or normal human fetal neural stem cells-NSC) versus CD133-negative human embryonic fibroblast (HEFs) (Figure 8A). MTT-based cytotoxicity assay (Figure 7B-D) were performed as previously described.

G179 = test: MTT-based cytotoxicity assay, G179; type: cell-based; conditions: G179, 72 h after treatment
G144-GNSC cells = test: Transcriptome comparison (DESeq2) of G144-GNSC cells after treatment; type: cell-based, human; conditions: DESeq2, p-adj<0.01, treated vs non-treated G144-GNSC
Text: Finally, to elucidate the molecular basis of BMT9 effect on the stemness potential of the GNSCs, we compared the transcriptome of non-treated G144-GNSC cells with those after BMT9 treatment. The DESeq2 analysis identified 6163 differentially expressed genes (DEGs) with a p-adj<0.01. […] Among the found DEGs we found GSC markers like PROM1(CD133), LGR5, or SOX1 and SOX4, as well as key regulators involved in maintenance of the cancer cell stemness state like SOX9 (Wang et al., 2018)(Aldaz et al., 2020), CDC20 (Gujar et al., 2016) or AURKA, known to govern self-renewal capacity in glioma-initiating cells via stabilization/activation of β-catenin/Wnt signaling (Xia et al., 2013) and proposed, together with CCNA2, and TPX2, as ideal drug targets in GBM (Du et al., 2020). Table 3. Correlation of GNSCs transcriptomic profiles after BMT9 treatment with published gene signatures of stemness.

[4] = system: invasiveness-related genes; test: qRT-PCR of invasiveness-related genes in G144 cells; type: cell-based, human; conditions: G144, 4.5 µM, 72 h
Protocol: For expression analysis, G144 cells were treated with BMT9 (4.5 µM) and after 72 h mRNA was extracted and qRT-PCR was performed.

G144 cells [5] = test: Annexin V / propidium iodide apoptosis flow cytometry in G144 cells; type: cell-based, human; conditions: 48 h
Protocol: For apoptosis induction analysis, the cells were treated with increasing amounts of BMT9 (4.5 µM and 9 µM) and collected 48 h after treatment. Anexin V and propidium iodide staining was performed using the FITC Annexin V Apoptosis Detection Kit I (BD Biosciences), following the manufacturer's instructions. Flow cytometry was performed with the "MACSQuantify Analyzer" (Miltenyi Biotec) and data were analyzed with "MACSQuantify" software (Miltenyi Biotec) (Figure 7A).

G144 R700 = test: MTT assay, TMZ-resistant clone G144 R700; type: cell-based; conditions: Homo sapiens, 72 hours
Text: While the first line therapy of gliomas has proven its effectiveness and improved clinical outcomes, acquired chemoresistance to alkylating agents has been identified as a major cause of treatment failure (Sarkaria et al., 2008). In a murine model of GB, long-term treatment with subtoxic TMZ doses enriched the side population of cancer stem cells, increasing the tumor aggressiveness (Bleau et al., 2009). Thus, we generated TMZ-resistant G144-clones that were selected upon treatment with TMZ either at 500 µM or 700 µM for several months (R500 and R700, respectively). The obtained clones maintained CD133 stem marker expression (Figure 9A). We then analyzed BMT9 dose-dependent effect on cell viability, by MTT assay, comparing the resistant clones to parental cells.

C=C1C2CCC(C)(C3COc4c(C)c(OC)c5c(c4C3O)C(O)OC5=O)C1CCC2(C)C (stereo not drawn) [BMT9]
highest concentration in the plasma [1]: 7611 ng/mL | time at which plasma concentration reached the control levels post-administration [1]: 24 h | time of highest concentration in the plasma after injection [1]: 4 h | invasion of cells within the matrix surrounding the spheres (G144 cells [2]): significantly impaired the invasion of cells | cell migration (wound closure) (G144): significantly impaired cell migration | cellular viability in long term culture [3]: affected | concentration as low as which still reduced viability (G179): 6.75 µM | differentially expressed genes (DEGs) (G144-GNSC cells): 6163 | expression of a set of invasiveness-related genes [4]: downregulation of all the analyzed genes | apoptosis induction (G144 cells [5]; G144, 4.5 µM (IC50 dosage)): moderate levels of apoptosis | apoptosis induction (G144 cells [5]; G144, 9 µM): strongly induced cell death | pIC50 (G144 R700): 5.35 to 5.47
